Source: patent US20140228303A1, “NOVEL SGLT INHIBITORS” (Panacea Biotec Ltd, priority 2011, published 2014)

Legend:
Rats = assay: Estimation of urinary glucose in rat; type: in vivo; conditions: urine collected over 24 hrs
Procedure: Estimation of Urinary Glucose in Rat
Rats were fasted overnight (14 hrs) before drug treatment. Fasted rats were weighed and randomized into different groups based on their body weight (n=4). At time To test compounds and standard compound suspended in 0.25% C.M.C. or PEG 400 formulation were administered to respective groups and kept the animals in metabolic cages (1 rat/cage) after dosing. Animals were fed after drug administration and urine was collected over a period of 24 hrs. Urine volume was measured and urinary glucose was estimated using Merckotest Glucose Reagent (Merck Specialities Pvt. Ltd., India).

C57BL/6J mice = assay: Estimation of urinary glucose in C57BL/6J mice; type: in vivo, mouse; conditions: urine collected over 24 h
Procedure: Estimation of Urinary Glucose in C57BL/6J Mice
C57BL/6J mice were fasted 4 h before drug treatment. Fasted mice were weighed and randomized into different groups based on their body weight (n=6). At time T0 test compounds and standard compounds suspended in 0.25% CMC or PEG 400 formulation, were administered to respective groups and kept in metabolic cages (6 mice/cage) after dosing. Animals were fed after drug administration and urine was collected over a period of 24 h. Urinary volume was measured and urinary glucose was estimated using Merckotest Glucose Reagent (Merck Specialities Pvt. Ltd., India).

mouse SGLT-2 = biological target: T1, mouse SGLT-2 (Mus musculus, UniProt Q923I7); assay: Methyl-α-D-[U-14C]Glucopyranoside uptake assay for SGLT-2 in CHO-K1 cells expressing mSGLT-2; type: cell-based; conditions: N.E. = Not Effective
T1 construct: Full-length mouse SGLT-2 cDNA was amplified from C57BL/6J mouse kidneys and introduced in the pcDNA3.1(+) expression vector; expressed in transfected cells
T1 sequence (Q923I7 1-670): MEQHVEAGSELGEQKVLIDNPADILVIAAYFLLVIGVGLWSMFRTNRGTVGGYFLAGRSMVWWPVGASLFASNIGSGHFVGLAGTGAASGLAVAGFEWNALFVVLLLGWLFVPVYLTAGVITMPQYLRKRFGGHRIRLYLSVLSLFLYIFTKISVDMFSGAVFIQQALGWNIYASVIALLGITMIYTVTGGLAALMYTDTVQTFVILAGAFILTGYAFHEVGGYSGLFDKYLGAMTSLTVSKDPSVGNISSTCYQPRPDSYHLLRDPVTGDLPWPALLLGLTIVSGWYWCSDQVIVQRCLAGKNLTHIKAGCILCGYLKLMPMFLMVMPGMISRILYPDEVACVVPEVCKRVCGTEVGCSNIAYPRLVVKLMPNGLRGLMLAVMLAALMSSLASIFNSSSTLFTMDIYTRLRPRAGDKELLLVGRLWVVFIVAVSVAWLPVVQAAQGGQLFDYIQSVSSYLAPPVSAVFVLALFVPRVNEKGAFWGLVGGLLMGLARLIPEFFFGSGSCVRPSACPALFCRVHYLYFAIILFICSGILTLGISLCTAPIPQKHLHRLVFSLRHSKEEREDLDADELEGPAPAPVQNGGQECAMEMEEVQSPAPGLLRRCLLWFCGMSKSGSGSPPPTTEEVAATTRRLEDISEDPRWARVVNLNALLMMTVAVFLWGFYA
Procedure: Preparation of Mouse SGLT-2 Expressing Cells
Full-length mouse SGLT-2 cDNA was amplified from C57BL/6J mouse kidneys and introduced in the pcDNA3.1(+) expression vector (Invitrogen, Inc.) and propagated in Escherichia coli strain DH5α using Luria-Bertani (LB) medium containing ampicillin. […] Stably transfected cells were selected using G418 antibiotic selection pressure.
Methyl-α-D-[U-^14C]Glucopyranoside Uptake Assay for SGLT-2
(§1) Cells expressing mSGLT-2 were seeded on 96-well tissue culture plates (Greiner, Inc.) in RPMI containing 10% FBS and 400 μg/mL G418 (0.8×10^5 cells per well in 200 μL medium) and incubated at 37° C. under 5% carbon dioxide for 24 h prior to the assay. Cells were washed twice with 200 μL of either sodium buffer (140 mM NaCl, 4.7 mM KCl, 2.2 mM CaCl2, 1.2 mM MgCl2, 10 mM Tris/Hepes, pH 7.4) or sodium-free buffer (137 mM N-methyl-glucamine, 4.7 mM KCl, 2.2 mM CaCl2, 1.2 mM MgCl2, 10 mM Tris/Hepes, pH 7.4). Reaction mixture containing test compounds at different concentrations diluted in assay buffer, 0.1 mM unlabeled Methyl-α-D-glucopyranoside and 1 μCi/well methyl-α-D[U-^14C]glucopyranoside (American Radiochemicals) was added per well of a 96-well plate and incubated at 37° C. for 1 h. Cells were washed thrice with 200 μL of wash buffer (140 mM NaCl, 4.7 mM KCl, 2.2 mM CaCl2, 1.2 mM MgCl2, 10 mM Tris/Hepes, pH 7.4 containing 500 μM phlorizin) and lysed using 50 μL of 0.25N NaOH. Methyl-α-D[U-^14C]glucopyranoside uptake was quantitated using a Top count scintillation counter (PerkinElmer, Inc.). All the test compounds were assayed in triplicates.

human SGLT-1 = biological target: T2, human SGLT-1 (Homo sapiens, UniProt P13866); assay: Methyl-α-D-[U-14C]Glucopyranoside uptake assay for SGLT-1 in CHO-K1 cells expressing hSGLT-1; type: cell-based; conditions: N.E. = Not Effective
T2 construct: Full-length human SGLT-1 cDNA in the pCMV-XL-Neo expression vector was obtained from Origene Corporation
T2 sequence (P13866 1-664): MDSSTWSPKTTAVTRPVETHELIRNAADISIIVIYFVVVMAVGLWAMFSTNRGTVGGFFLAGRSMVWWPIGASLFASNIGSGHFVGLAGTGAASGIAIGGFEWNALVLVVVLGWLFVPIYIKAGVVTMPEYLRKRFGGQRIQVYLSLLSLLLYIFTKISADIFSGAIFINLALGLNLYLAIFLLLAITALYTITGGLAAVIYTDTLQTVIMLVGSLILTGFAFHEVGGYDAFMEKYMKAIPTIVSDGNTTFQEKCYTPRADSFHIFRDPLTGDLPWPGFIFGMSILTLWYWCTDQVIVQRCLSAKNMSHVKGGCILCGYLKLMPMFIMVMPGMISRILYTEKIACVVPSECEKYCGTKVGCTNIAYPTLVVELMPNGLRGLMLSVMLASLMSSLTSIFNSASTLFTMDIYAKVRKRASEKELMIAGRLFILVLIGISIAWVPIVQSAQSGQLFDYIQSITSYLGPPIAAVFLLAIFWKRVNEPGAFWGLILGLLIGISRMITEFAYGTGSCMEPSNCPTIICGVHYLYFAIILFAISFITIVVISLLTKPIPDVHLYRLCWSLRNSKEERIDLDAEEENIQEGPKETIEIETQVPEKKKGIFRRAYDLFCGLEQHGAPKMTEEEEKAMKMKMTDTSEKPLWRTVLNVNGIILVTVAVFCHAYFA
Procedure: Preparation of Human SGLT-1 Expressing Cells
Full-length human SGLT-1 cDNA in the pCMV-XL-Neo expression vector was obtained from Origene Corporation and propagated in Escherichia coli strain DH5α using Luria-Bertani (LB) medium containing ampicillin. […] Stably transfected cells were selected using G418 antibiotic selection pressure.
Methyl-α-D-[U-^14C]Glucopyranoside Uptake Assay for SGLT-1
as §1, with “hSGLT-1” for “mSGLT-2”, “800 μg/ml” for “400 μg/mL”, “compounds” for “compounds at different concentrations”, “1” for “0.1”, “methyl-α-D-[U-^14C]glucopyranoside” for “methyl-α-D[U-^14C]glucopyranoside”, “Methyl-α-D-[U-^14C]glucopyranoside” for “Methyl-α-D[U-^14C]glucopyranoside”

Substance: 1-(4-(2-chloro-5-((1S,2S,3S,4R,5S)-2,3,4-trihydroxy-1-(hydroxymethyl)-6,8-dioxabicyclo[3.2.1]octan-5-yl)benzyl)phenyl)propan-1-one O-methyl oxime [Compound 3]
- UGE in rat (in mg/g of feed consumed) at 3 mpk (Rats): 67.4 mg/g of feed consumed
- UGE in mice (in mg/g of feed consumed) at 3 mpk (C57BL/6J mice): 81.9 mg/g of feed consumed
- % inhibition of Methyl-α-D-[U-14C] Glucopyranoside uptake (CHO-K1 cells) mediated by SGLT-2 (mouse SGLT-2; 0.1 nM compound): 26.42%
- % inhibition of Methyl-α-D-[U-14C] Glucopyranoside uptake (CHO-K1 cells) mediated by SGLT-2 (mouse SGLT-2; 1 nM compound): 26.10%
- % inhibition of Methyl-α-D-[U-14C] Glucopyranoside uptake (CHO-K1 cells) mediated by SGLT-2 (mouse SGLT-2; 10 nM compound): 59.52%
- % inhibition of Methyl-α-D-[U-14C] Glucopyranoside uptake (CHO-K1 cells) mediated by SGLT-2 (mouse SGLT-2; 100 nM compound): 93.34%
- % inhibition of Methyl-α-D-[U-14C] Glucopyranoside uptake (CHO-K1 cells) mediated by SGLT-1 (human SGLT-1; 100 nM compound): N.E.
- % inhibition of Methyl-α-D-[U-14C] Glucopyranoside uptake (CHO-K1 cells) mediated by SGLT-1 (human SGLT-1; 1 μM compound): N.E.
- % inhibition of Methyl-α-D-[U-14C] Glucopyranoside uptake (CHO-K1 cells) mediated by SGLT-1 (human SGLT-1; 10 μM compound): 63.64%
